The target in one experiment is human full length PDE3A (Homo sapiens (Human), UniProt Q14432). Nature of the experiment: Assay 4 PDE3A enzyme inhibition (3H-cAMP SPA). Type of experiment: biochemical. Particulars: Sf9 cell extract. As for the experimental part: Assay 4 Method for PDE3A Enzyme Inhibition
(§1) The commercially available 3H-cAMP Scintillation Proximity Assay (SPA, Perkin Elmer) system was used for enzyme inhibition studies. For the determination of the in vitro effect of example compounds on the PDE3A reactions 2 μl of the respective example compound solution in DMSO (serial dilutions) were placed in wells of microtiter plates (Isoplate-96/200W; Perkin Elmer). 50 μl of a dilution of PDE3A cell extract from Sf9 cells overexpressing human full length PDE3A (SB Drug Discovery, UK) in buffer A (50 mM Tris/HCl pH 7.5, 8.3 mM MgCl2, 1.7 mM EDTA, 0.2% BSA) was added. The dilution of the PDE3A cell extract was chosen such that the reaction kinetics was linear and less than 70% of the substrate was consumed (typical dilution 1:5000). The reaction was started by addition of 50 μl (0.025 μCi) of 1:2000 in buffer A w/o BSA diluted substrate [8-3H]adenosine 3′, 5′-cyclic phosphate (1 μCi/μl; Perkin Elmer). After incubation at room temperature for 60 min, the reaction was stopped by addition of 25 μl of a suspension containing 18 mg/ml yttrium scintillation proximity beads (Perkin Elmer) in water. The microtiter plates were sealed and measured in a Microbeta scintillation counter (PerkinElmer Wallac). IC50 values were determined from sigmoidal curves by plotting percentage PDE3A activity vs log compound concentration.

A further experiment deals with HeLa cells. In words: Assay 1 cell proliferation measurement (CTG, 72 h), HeLa. Particulars: Homo sapiens, HeLa; Assay 1, 72 h, Cell Titer Glo; read-out: HeLa IC50 [nM] (Cervical cancer). The format is cell-based, human. As for the experimental part: (§2) Cell Proliferation Measurement
(§3) The antiproliferative activity of the compounds of the general formula (I) was examined in vitro in human cancer cells. For this purpose, the appropriate number of cells (Hela: 800; SK-MEL-3: 1000; A549: 800) were plated in 384-well plates with appropriate growth medium ((A549: DMEM/Ham's F12 (Biochrom; #FG 4815 with stabile Glutamine), FCS 10% final (Biochrom; #S 0415); Hela: DMEM/Ham's F12 (Biochrom; #FG 4815 with stabile Glutamine), FCS 10% final (Biochrom; #S 0415); SK-MEL-3: McCoy's 5A (Biochrom; #F 1015), FCS 10% final (Biochrom; #S 0415), L-Alanyl-L-Glutamine final: 2 mM, (Biochrom; #K 0302)) and incubated at 37° C. overnight. After 24 h, cells on one plate (0 h plate) were treated with 30 μl/cavity of CTG solution (Promega Cell Titer Glo (catalogue #G755B and G756B)) and incubated at room temperature for 10 min, and luminescence was measured by means of a VICTOR V (Perkin Elmer), in order to determine cell viability on commencement of treatment. The cells on the test plate were treated with the compounds of the general formula (I) as and incubated at 37° C. for 72 h. The compounds were added to the cells by means of an HP D300 digital dispenser in a 10-step 2.5-fold dilution series generally starting at a maximum final drug concentration of 100 nM. As control, the cells were treated with vehicle (DMSO at 0.3% final concentration). After 72 h, the cells were treated with 30 μl/cavity of CTG solution (Promega Cell Titer Glo (catalogue #G755B and G756B)) and incubated at room temperature for 10 min. and luminescence was measured by means of a VICTOR V (Perkin Elmer), in order to determine cell viability at the end of treatment. The percentage effect on cell growth and the IC50 derived therefrom were determined for each test substance using the values from the 0 h plate […] and the DMSO control […]. The IC50 values were calculated using a 4-parameter fit.

The next experiment has as its system SK-MEL-3 cells. Nature of the experiment: Assay 1 cell proliferation measurement (CTG, 72 h), SK-MEL-3. The note with it: Homo sapiens, SK-MEL3; Assay 1, 72 h, Cell Titer Glo; read-out: SK-MEL-3 IC50 [nM] (melanoma). Type of experiment: cell-based, human. On the procedure: as §2, §3
(In general: ATP-based viability assays read luminescence as a measure of living cells.)

A further experiment has as its target human full length PDE3B (Homo sapiens (Human), UniProt Q13370). In words: Assay 5 PDE3B enzyme inhibition (3H-cAMP SPA). Type of experiment: biochemical. Particulars: Sf9 cell extract. On the procedure: as §1, with “PDE3B” for “PDE3A”, “1:6000).” for “1:5000).”

The record followed here is patent publication US11427553B2, “Dihydrooxadiazinones” (Bayer Aktiengesellschaft, priority 2017, dated 2022).

The structures appear in SMILES notation. Bounds are passed on as bounds.

Sequence of human full length PDE3B (Q13370 whole entry): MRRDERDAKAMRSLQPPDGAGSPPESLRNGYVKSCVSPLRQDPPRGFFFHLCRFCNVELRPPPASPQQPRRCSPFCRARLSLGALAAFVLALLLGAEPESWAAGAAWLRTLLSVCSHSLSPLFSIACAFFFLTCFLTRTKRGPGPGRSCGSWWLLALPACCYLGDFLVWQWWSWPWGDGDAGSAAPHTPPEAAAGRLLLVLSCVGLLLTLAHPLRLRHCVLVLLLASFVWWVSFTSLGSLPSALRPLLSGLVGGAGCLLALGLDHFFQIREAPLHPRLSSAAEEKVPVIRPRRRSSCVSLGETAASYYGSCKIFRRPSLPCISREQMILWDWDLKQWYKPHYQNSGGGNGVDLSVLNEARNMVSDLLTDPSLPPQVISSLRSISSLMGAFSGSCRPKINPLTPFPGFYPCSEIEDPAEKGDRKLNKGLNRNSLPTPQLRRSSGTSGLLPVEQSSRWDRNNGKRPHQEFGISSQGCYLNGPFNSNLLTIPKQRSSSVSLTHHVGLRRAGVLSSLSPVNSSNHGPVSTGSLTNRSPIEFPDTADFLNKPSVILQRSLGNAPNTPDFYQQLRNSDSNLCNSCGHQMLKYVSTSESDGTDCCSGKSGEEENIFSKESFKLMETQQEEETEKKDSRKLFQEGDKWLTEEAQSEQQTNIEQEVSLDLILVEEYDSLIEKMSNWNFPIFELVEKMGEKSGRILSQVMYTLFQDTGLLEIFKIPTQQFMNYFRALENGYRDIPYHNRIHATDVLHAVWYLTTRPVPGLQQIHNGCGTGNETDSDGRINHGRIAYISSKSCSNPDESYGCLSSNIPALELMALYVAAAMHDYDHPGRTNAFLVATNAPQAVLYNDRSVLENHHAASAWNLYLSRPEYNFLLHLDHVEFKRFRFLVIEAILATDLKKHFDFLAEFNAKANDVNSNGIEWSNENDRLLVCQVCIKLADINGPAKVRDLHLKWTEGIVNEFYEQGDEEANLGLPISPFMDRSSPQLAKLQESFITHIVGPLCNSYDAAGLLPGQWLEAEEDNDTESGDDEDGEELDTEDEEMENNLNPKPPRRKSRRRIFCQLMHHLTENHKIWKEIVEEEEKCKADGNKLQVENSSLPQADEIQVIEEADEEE
Sequence of human full length PDE3A (Q14432 whole entry): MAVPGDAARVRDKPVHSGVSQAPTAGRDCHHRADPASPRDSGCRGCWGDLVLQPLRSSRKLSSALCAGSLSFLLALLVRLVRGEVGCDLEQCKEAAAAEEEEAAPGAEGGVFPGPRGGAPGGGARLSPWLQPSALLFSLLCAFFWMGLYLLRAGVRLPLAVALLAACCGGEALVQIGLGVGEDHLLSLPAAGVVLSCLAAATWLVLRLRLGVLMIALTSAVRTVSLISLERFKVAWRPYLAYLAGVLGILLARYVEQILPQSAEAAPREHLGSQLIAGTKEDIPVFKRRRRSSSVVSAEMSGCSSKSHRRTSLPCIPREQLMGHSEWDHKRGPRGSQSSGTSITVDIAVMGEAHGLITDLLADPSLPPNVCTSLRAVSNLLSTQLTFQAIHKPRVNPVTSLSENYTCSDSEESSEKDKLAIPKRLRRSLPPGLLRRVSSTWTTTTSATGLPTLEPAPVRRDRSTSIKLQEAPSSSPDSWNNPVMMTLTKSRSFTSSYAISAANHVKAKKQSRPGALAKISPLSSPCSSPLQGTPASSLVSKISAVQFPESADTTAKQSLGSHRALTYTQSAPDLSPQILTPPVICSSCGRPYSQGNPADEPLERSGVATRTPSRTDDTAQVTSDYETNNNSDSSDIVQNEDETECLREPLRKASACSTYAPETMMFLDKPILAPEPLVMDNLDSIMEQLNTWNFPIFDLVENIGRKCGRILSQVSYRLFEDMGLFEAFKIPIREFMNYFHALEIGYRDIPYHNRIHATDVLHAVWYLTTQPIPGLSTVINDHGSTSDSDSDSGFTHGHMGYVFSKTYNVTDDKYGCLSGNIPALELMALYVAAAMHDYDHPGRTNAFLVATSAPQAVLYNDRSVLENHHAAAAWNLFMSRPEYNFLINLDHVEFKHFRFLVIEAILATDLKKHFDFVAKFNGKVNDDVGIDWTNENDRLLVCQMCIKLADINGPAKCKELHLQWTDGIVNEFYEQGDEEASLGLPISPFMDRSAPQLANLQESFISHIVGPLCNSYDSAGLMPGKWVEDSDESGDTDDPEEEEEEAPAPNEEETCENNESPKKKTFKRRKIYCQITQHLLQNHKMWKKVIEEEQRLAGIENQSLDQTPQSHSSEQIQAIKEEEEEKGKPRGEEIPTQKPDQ

The term IC50 denotes the concentration that inhibits the measured activity by half. Regarding `O=C1NN=C(c2ccc(NC3CC(O)C3)c(C(F)(F)F)c2)CO1` (mixture of isomers) [Example 206, (cis/trans)-5-[4-{[3-hydroxycyclobutyl]amino}-3-(trifluoromethyl)phenyl]-3,6-dihydro-2H-1,3,4-oxadiazin-2-one], the IC50 worked out at 15 nM against human full length PDE3A, 0.5 nM with HeLa cells, 1 nM in the experiment with SK-MEL-3 cells and 20 nM against human full length PDE3B.
On to `NC1CCC(Nc2ccc(C3=NNC(=O)OC3)cc2C(F)(F)F)CC1` (mixture of isomers) [Example 320, 5-[4-{[4-aminocyclohexyl]amino}-3-(trifluoromethyl)phenyl]-3,6-dihydro-2H-1,3,4-oxadiazin-2-one (mixture of stereoisomers)], for which the concentration for half-maximal inhibition (IC50) against human full length PDE3A was 76 nM; in the experiment with HeLa cells it was greater than 100 nM; in the experiment with SK-MEL-3 cells, greater than 100 nM; against human full length PDE3B it was 220 nM.
On to `NC1CCCC(Nc2ccc(C3=NNC(=O)OC3)cc2C(F)(F)F)C1` (mixture of isomers) [Example 322, 5-[4-{[3-aminocyclohexyl]amino}-3-(trifluoromethyl)phenyl]-3,6-dihydro-2H-1,3,4-oxadiazin-2-one (mixture of stereoisomers)], for which the IC50 on human full length PDE3A was 580 nM; with HeLa cells, greater than 100 nM; in the experiment with SK-MEL-3 cells, greater than 100 nM; on human full length PDE3B, 780 nM.
As for `CC1OC(=O)NN=C1c1cc(F)c(N2CCOCC2)c(F)c1` (racemic) [Example 17, (rac)-5-[3,5-Difluoro-4-(morpholin-4-yl)phenyl]-6-methyl-3,6-dihydro-2H-1,3,4-oxadiazin-2-one], the IC50 against human full length PDE3A is 25 nM; in the experiment with HeLa cells, 7 nM; in the experiment with SK-MEL-3 cells it was 17 nM; against human full length PDE3B, 17 nM.
In the case of `Cc1cc(C2=NNC(=O)OC2)ccc1-c1cccnc1` [Example 13, 5-[3-Methyl-4-(pyridin-3-yl)phenyl]-3,6-dihydro-2H-1,3,4-oxadiazin-2-one], the IC50 in the experiment with HeLa cells turned out to be 27 nM; with SK-MEL-3 cells it was 82 nM.
The like results for `CCc1ccccc1-c1ccc(C2=NNC(=O)O[C@H]2C)cc1C(F)(F)F` [Example 186, (6S)-5-[2′-Ethyl-2-(trifluoromethyl)[1,1′-biphenyl]-4-yl]-6-methyl-3,6-dihydro-2H-1,3,4-oxadiazin-2-one] were, in that order, 61 nM and 71 nM.
For the compound `Cn1nccc1CNc1ccc(C2=NNC(=O)OC2)cc1C(F)(F)F` [Example 236, 5-[4-{[(1-Methyl-1H-pyrazol-5-yl)methyl]amino}-3-(trifluoromethyl)phenyl]-3,6-dihydro-2H-1,3,4-oxadiazin-2-one], the IC50 at human full length PDE3A was determined as 45 nM; in the experiment on HeLa cells, 4 nM; on human full length PDE3B, 54 nM.
The like results for `O=C1NN=C(c2ccc(NCc3cc[nH]n3)c(C(F)(F)F)c2)CO1` [Example 237, 5-[4-{[(1H-Pyrazol-3-yl)methyl]amino}-3-(trifluoromethyl)phenyl]-3,6-dihydro-2H-1,3,4-oxadiazin-2-one] were, in that order, 120 nM, 0.4 nM and 140 nM.
The like results for `O=C1NN=C(c2ccc(NCCn3cccn3)c(C(F)(F)F)c2)CO1` [Example 238, 5-[4-{[2-(1H-Pyrazol-1-yl)ethyl]amino}-3-(trifluoromethyl)phenyl]-3,6-dihydro-2H-1,3,4-oxadiazin-2-one] were, in that order, 88 nM, 7 nM and 300 nM.
The like results for `CCOC1CN(c2ccc(C3=NNC(=O)OC3)cc2C(F)(F)F)C1` [Example 243, 5-[4-(3-Ethoxyazetidin-1-yl)-3-(trifluoromethyl)phenyl]-3,6-dihydro-2H-1,3,4-oxadiazin-2-one] were, in that order, 48 nM, 6 nM and 100 nM.
`O=C1NN=C(c2ccc(NCc3ncccn3)c(C(F)(F)F)c2)CO1` [Example 244, 5-[4-{[(Pyrimidin-2-yl)methyl]amino}-3-(trifluoromethyl)phenyl]-3,6-dihydro-2H-1,3,4-oxadiazin-2-one]: the concentration for half-maximal inhibition (IC50) against human full length PDE3A is 120 nM; with HeLa cells, 3 nM; against human full length PDE3B, 150 nM.
The matching figures for `C[C@@H](CCO)Nc1ccc(C2=NNC(=O)OC2)cc1C(F)(F)F` [Example 246, 5-[4-{[(2S)-4-Hydroxybutan-2-yl]amino}-3-(trifluoromethyl)phenyl]-3,6-dihydro-2H-1,3,4-oxadiazin-2-one]: 95 nM, 12 nM and 210 nM.
For the compound `O=C1NN=C(c2ccc(NCC3(CO)CCC3)c(C(F)(F)F)c2)CO1` [Example 249, 5-[4-({[1-(Hydroxymethyl)cyclobutyl]methyl}amino)-3-(trifluoromethyl)phenyl]-3,6-dihydro-2H-1,3,4-oxadiazin-2-one], the IC50 on human full length PDE3A is 100 nM; in the experiment with HeLa cells it was 1 nM; against human full length PDE3B it was 110 nM.
The like results for `O=C1NN=C(c2ccc(N3CC[C@H]3CO)c(C(F)(F)F)c2)CO1` [Example 250, 5-{4-[(2S)-2-(Hydroxymethyl)azetidin-1-yl]-3-(trifluoromethyl)phenyl}-3,6-dihydro-2H-1,3,4-oxadiazin-2-one] were, in that order, 120 nM, 2 nM and 120 nM.
On to `O=C1NN=C(c2ccc(N3CC4CC4C3)c(C(F)(F)F)c2)CO1` (stereo not shown) [Example 252, 5-[4-(3-Azabicyclo[3.1.0]hexan-3-yl)-3-(trifluoromethyl)phenyl]-3,6-dihydro-2H-1,3,4-oxadiazin-2-one], for which the IC50 against human full length PDE3A turned out to be 110 nM; in the experiment on HeLa cells, 1 nM; on human full length PDE3B, 86 nM.
On to `N#CCCCNc1ccc(C2=NNC(=O)OC2)cc1C(F)(F)F` [Example 254, 4-[4-(2-Oxo-3,6-dihydro-2H-1,3,4-oxadiazin-5-yl)-2-(trifluoromethyl)anilino]butanenitrile], for which the results for the IC50 against human full length PDE3A, in the experiment on HeLa cells and against human full length PDE3B were 45 nM, 2 nM and 31 nM, respectively.
The matching figures for `O=C1NN=C(c2ccc(N3CC4(C3)CS(=O)(=O)C4)c(C(F)(F)F)c2)CO1` [Example 255, 6-[4-(2-Oxo-3,6-dihydro-2H-1,3,4-oxadiazin-5-yl)-2-(trifluoromethyl)phenyl]-2λ^6-thia-6-azaspiro[3.3]heptane-2,2-dione]: 100 nM, 5 nM and 76 nM.
For the compound `Nc1ncc(-c2ccc(C3=NNC(=O)OC3)cc2F)cn1` [Example 330, 5-[4-(2-aminopyrimidin-5-yl)-3-fluorophenyl]-3,6-dihydro-2H-1,3,4-oxadiazin-2-one], the IC50 with HeLa cells and with SK-MEL-3 cells was greater than 100 nM throughout.
